Test results taken from the NIST ThermoML archive (doi:10.1021/je200457q).
Numbers after ± are expanded uncertainties.

Assay: excess molar enthalpy (molar enthalpy of mixing); xn = mol fraction of the nth substance listed
Conditions: 101 kPa, Liquid, Flow calorimetry

## C=CC(C)(O)CCC=C(C)C (stereo not drawn) [3,7-dimethyl-1,6-octadien-3-ol] + CCCO
283.15 K, x1 = 0.048
  excess molar enthalpy: -0.0404 ± 0.00191 kcal/mol
283.15 K, x1 = 0.096
  excess molar enthalpy: -0.0772 ± 0.00263 kcal/mol
283.15 K, x1 = 0.188
  excess molar enthalpy: -0.13 ± 0.00382 kcal/mol
283.15 K, x1 = 0.29
  excess molar enthalpy: -0.153 ± 0.0043 kcal/mol
283.15 K, x1 = 0.383
  excess molar enthalpy: -0.154 ± 0.0043 kcal/mol
283.15 K, x1 = 0.491
  excess molar enthalpy: -0.142 ± 0.00406 kcal/mol
283.15 K, x1 = 0.584
  excess molar enthalpy: -0.121 ± 0.00335 kcal/mol
283.15 K, x1 = 0.693
  excess molar enthalpy: -0.0884 ± 0.00263 kcal/mol
283.15 K, x1 = 0.794
  excess molar enthalpy: -0.0588 ± 0.00191 kcal/mol
283.15 K, x1 = 0.894
  excess molar enthalpy: -0.027 ± 0.000956 kcal/mol
283.15 K, x1 = 0.945
  excess molar enthalpy: -0.0139 ± 0.0012 kcal/mol
298.15 K, x1 = 0.048
  excess molar enthalpy: -0.0392 ± 0.00191 kcal/mol
298.15 K, x1 = 0.096
  excess molar enthalpy: -0.0786 ± 0.00263 kcal/mol
298.15 K, x1 = 0.188
  excess molar enthalpy: -0.136 ± 0.00406 kcal/mol
298.15 K, x1 = 0.29
  excess molar enthalpy: -0.167 ± 0.00478 kcal/mol
298.15 K, x1 = 0.383
  excess molar enthalpy: -0.168 ± 0.00478 kcal/mol
298.15 K, x1 = 0.491
  excess molar enthalpy: -0.148 ± 0.0043 kcal/mol
298.15 K, x1 = 0.584
  excess molar enthalpy: -0.124 ± 0.00359 kcal/mol
298.15 K, x1 = 0.693
  excess molar enthalpy: -0.0908 ± 0.00263 kcal/mol
298.15 K, x1 = 0.794
  excess molar enthalpy: -0.0614 ± 0.00191 kcal/mol
298.15 K, x1 = 0.894
  excess molar enthalpy: -0.0311 ± 0.0012 kcal/mol
298.15 K, x1 = 0.945
  excess molar enthalpy: -0.0163 ± 0.000478 kcal/mol
313.15 K, x1 = 0.048
  excess molar enthalpy: -0.0428 ± 0.00191 kcal/mol
313.15 K, x1 = 0.096
  excess molar enthalpy: -0.0786 ± 0.00263 kcal/mol
313.15 K, x1 = 0.188
  excess molar enthalpy: -0.134 ± 0.00382 kcal/mol
313.15 K, x1 = 0.29
  excess molar enthalpy: -0.162 ± 0.00454 kcal/mol
313.15 K, x1 = 0.383
  excess molar enthalpy: -0.161 ± 0.00454 kcal/mol
313.15 K, x1 = 0.491
  excess molar enthalpy: -0.142 ± 0.00406 kcal/mol
313.15 K, x1 = 0.584
  excess molar enthalpy: -0.123 ± 0.00359 kcal/mol
313.15 K, x1 = 0.693
  excess molar enthalpy: -0.0937 ± 0.00263 kcal/mol
313.15 K, x1 = 0.794
  excess molar enthalpy: -0.0686 ± 0.00215 kcal/mol
313.15 K, x1 = 0.894
  excess molar enthalpy: -0.0356 ± 0.0012 kcal/mol
313.15 K, x1 = 0.945
  excess molar enthalpy: -0.0191 ± 0.000956 kcal/mol
328.15 K, x1 = 0.048
  excess molar enthalpy: -0.0411 ± 0.00167 kcal/mol
328.15 K, x1 = 0.096
  excess molar enthalpy: -0.0698 ± 0.00215 kcal/mol
328.15 K, x1 = 0.188
  excess molar enthalpy: -0.112 ± 0.00335 kcal/mol
328.15 K, x1 = 0.29
  excess molar enthalpy: -0.131 ± 0.00382 kcal/mol
328.15 K, x1 = 0.383
  excess molar enthalpy: -0.132 ± 0.00382 kcal/mol
328.15 K, x1 = 0.491
  excess molar enthalpy: -0.119 ± 0.00335 kcal/mol
328.15 K, x1 = 0.584
  excess molar enthalpy: -0.0997 ± 0.00287 kcal/mol
328.15 K, x1 = 0.693
  excess molar enthalpy: -0.0777 ± 0.00215 kcal/mol
328.15 K, x1 = 0.794
  excess molar enthalpy: -0.0574 ± 0.00167 kcal/mol
328.15 K, x1 = 0.894
  excess molar enthalpy: -0.0304 ± 0.000956 kcal/mol
328.15 K, x1 = 0.945
  excess molar enthalpy: -0.0165 ± 0.000717 kcal/mol

## C=CC(C)(O)CCC=C(C)C (stereo not drawn) [3,7-dimethyl-1,6-octadien-3-ol] + CCO
283.15 K, x1 = 0.047
  excess molar enthalpy: -0.0366 ± 0.00191 kcal/mol
283.15 K, x1 = 0.094
  excess molar enthalpy: -0.0741 ± 0.00263 kcal/mol
283.15 K, x1 = 0.19
  excess molar enthalpy: -0.143 ± 0.0043 kcal/mol
283.15 K, x1 = 0.29
  excess molar enthalpy: -0.185 ± 0.00526 kcal/mol
283.15 K, x1 = 0.387
  excess molar enthalpy: -0.191 ± 0.0055 kcal/mol
283.15 K, x1 = 0.481
  excess molar enthalpy: -0.179 ± 0.00502 kcal/mol
283.15 K, x1 = 0.585
  excess molar enthalpy: -0.152 ± 0.0043 kcal/mol
283.15 K, x1 = 0.695
  excess molar enthalpy: -0.11 ± 0.00311 kcal/mol
283.15 K, x1 = 0.78
  excess molar enthalpy: -0.0743 ± 0.00215 kcal/mol
283.15 K, x1 = 0.895
  excess molar enthalpy: -0.0335 ± 0.0012 kcal/mol
283.15 K, x1 = 0.946
  excess molar enthalpy: -0.0165 ± 0.000956 kcal/mol
298.15 K, x1 = 0.047
  excess molar enthalpy: -0.0366 ± 0.00215 kcal/mol
298.15 K, x1 = 0.094
  excess molar enthalpy: -0.0805 ± 0.00287 kcal/mol
298.15 K, x1 = 0.19
  excess molar enthalpy: -0.152 ± 0.00454 kcal/mol
298.15 K, x1 = 0.29
  excess molar enthalpy: -0.198 ± 0.0055 kcal/mol
298.15 K, x1 = 0.387
  excess molar enthalpy: -0.207 ± 0.00574 kcal/mol
298.15 K, x1 = 0.481
  excess molar enthalpy: -0.19 ± 0.00526 kcal/mol
298.15 K, x1 = 0.585
  excess molar enthalpy: -0.165 ± 0.00478 kcal/mol
298.15 K, x1 = 0.695
  excess molar enthalpy: -0.121 ± 0.00359 kcal/mol
298.15 K, x1 = 0.78
  excess molar enthalpy: -0.0923 ± 0.00263 kcal/mol
298.15 K, x1 = 0.895
  excess molar enthalpy: -0.0423 ± 0.00143 kcal/mol
298.15 K, x1 = 0.946
  excess molar enthalpy: -0.021 ± 0.000956 kcal/mol
313.15 K, x1 = 0.047
  excess molar enthalpy: -0.0418 ± 0.00215 kcal/mol
313.15 K, x1 = 0.094
  excess molar enthalpy: -0.0839 ± 0.00287 kcal/mol
313.15 K, x1 = 0.19
  excess molar enthalpy: -0.157 ± 0.00454 kcal/mol
313.15 K, x1 = 0.29
  excess molar enthalpy: -0.202 ± 0.00574 kcal/mol
313.15 K, x1 = 0.387
  excess molar enthalpy: -0.212 ± 0.00598 kcal/mol
313.15 K, x1 = 0.481
  excess molar enthalpy: -0.199 ± 0.00574 kcal/mol
313.15 K, x1 = 0.585
  excess molar enthalpy: -0.17 ± 0.00478 kcal/mol
313.15 K, x1 = 0.695
  excess molar enthalpy: -0.128 ± 0.00359 kcal/mol
313.15 K, x1 = 0.78
  excess molar enthalpy: -0.101 ± 0.00287 kcal/mol
313.15 K, x1 = 0.895
  excess molar enthalpy: -0.0473 ± 0.00167 kcal/mol
313.15 K, x1 = 0.946
  excess molar enthalpy: -0.0249 ± 0.0012 kcal/mol
328.15 K, x1 = 0.047
  excess molar enthalpy: -0.0413 ± 0.00215 kcal/mol
328.15 K, x1 = 0.094
  excess molar enthalpy: -0.0798 ± 0.00263 kcal/mol
328.15 K, x1 = 0.19
  excess molar enthalpy: -0.143 ± 0.00406 kcal/mol
328.15 K, x1 = 0.29
  excess molar enthalpy: -0.18 ± 0.00502 kcal/mol
328.15 K, x1 = 0.387
  excess molar enthalpy: -0.189 ± 0.00526 kcal/mol
328.15 K, x1 = 0.481
  excess molar enthalpy: -0.177 ± 0.00502 kcal/mol
328.15 K, x1 = 0.585
  excess molar enthalpy: -0.152 ± 0.0043 kcal/mol
328.15 K, x1 = 0.695
  excess molar enthalpy: -0.114 ± 0.00335 kcal/mol
328.15 K, x1 = 0.78
  excess molar enthalpy: -0.0875 ± 0.00263 kcal/mol
328.15 K, x1 = 0.895
  excess molar enthalpy: -0.0411 ± 0.00143 kcal/mol
328.15 K, x1 = 0.946
  excess molar enthalpy: -0.0232 ± 0.000956 kcal/mol
